Measurements taken from BindingDB's records for doi:10.1021/jm00403a015 (Washington State University, 1988).

Target: Cytidine deaminase (Mus musculus) (UniProt P56389)
Assay: Inhibition of cytidine deaminase enzyme obtained from mouse kidney

Cytidine deaminase (Mus musculus), sequence (P56389 whole entry, looked up): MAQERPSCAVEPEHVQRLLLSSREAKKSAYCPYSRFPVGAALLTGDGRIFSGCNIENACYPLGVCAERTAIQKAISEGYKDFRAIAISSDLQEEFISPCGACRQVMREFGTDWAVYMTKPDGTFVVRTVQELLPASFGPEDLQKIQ

Ki: 330 µM
SMILES: [O-][S+]1C=CN(C2O[C@H](CO)[C@@H](O)[C@H]2O)C(O)=C1 (stereo partly specified)
